The conditions of data set [1]: cited from earlier work.
The conditions of data set [2]: oral administration, cited from earlier work.
The nature of data set [3]: Pharmacokinetics of inhaled tacrolimus in healthy volunteers, 1 mg BID repeat dose group (Part B). Format: in vivo, human. The procedure: The study is a blinded, randomized, placebo-controlled, multiple dose, dose-escalation study. Part B begins once the first three cohorts of Part A have completed and safety data has been reviewed. Twenty-four (24) healthy adult male and female (women of non-child-bearing potential only) subjects were enrolled. Eight (8) subjects were assigned to each of three dose levels (1.0 mg BID, 0.5 mg BID, or QD dose of either 1.0, 1.5, or 2.0mg, as determined by the SMC at the conclusion of Cohort 2 and after examining the safety and TDM data from that cohort) with six (6) subjects per cohort receiving tacrolimus inhalation and two (2) subjects receiving placebo.
Screening of subjects occurred within 28 days prior to the first dose administered. Study subjects were randomized to receive either a placebo or tacrolimus inhalation powder by inhalation. The subject assignment were blinded to the investigator, study coordinators and study subjects. Subjects were automatically replaced if they discontinue the study prior to dosing. On Day 1, subjects in each cohort begins receiving tacrolimus or placebo administered twice a day (every 12 hours) for Cohorts 1 and 2, and tacrolimus or placebo administered once per day (every 24 hours) for Cohort 3,through the Plastiape® inhaler. Blood samples and safety measurements were performed over 1 week as scheduled. […]
PK parameters for plasma tacrolimus are calculated as follows, as appropriate: AUC0-24: The area under the concentration-time curve, from time 0 to the 24-hour time point, as calculated by the linear trapezoidal method. If the 24-hour plasma concentration is missing, below the limit of quantification or not reportable, then this parameter will not be calculated. AUC0-t: The area under the concentration-time curve, from time 0 to the last observed non-zero concentration, as calculated by the linear trapezoidal method. […] AUC0-inf is calculated as the sum of AUC0-t plus the ratio of the last measurable plasma concentration to the elimination rate constant. […] CL/F Apparent total body clearance after oral administration, calculated as Dose/AUC0-inf. […] Kel: Apparent first-order terminal elimination rate constant calculated from a semi-log plot of the plasma concentration versus time curve. The parameter will be calculated by linear least-squares regression analysis using the maximum number of points in the terminal log-linear phase (e.g., three or more non-zero plasma concentrations). t1/2: Apparent first-order terminal elimination half-life are calculated as 0.693/Kel. Vz/F: Apparent volume of distribution during the terminal elimination phase after oral administration, calculated as […]. […]

Setting [4] is: inhalation 1 mg BID, healthy volunteers.

Structures are written as SMILES.

Regarding `C=CC[C@@H]1/C=C(\C)C[C@H](C)C[C@H](OC)[C@H]2O[C@@](O)(C(=O)C(=O)N3CCCC[C@H]3C(=O)O[C@H](/C(C)=C/[C@@H]3CC[C@@H](O)[C@H](OC)C3)[C@H](C)[C@@H](O)CC1=O)[C@H](C)C[C@@H]2OC` [tacrolimus, (1R,9S,12S,13R,14S,17R,18E,21S,23S,24R,25S,27R)-1,14-dihydroxy-12-[(E)-1-[(1R,3R,4R)-4-hydroxy-3-methoxycyclohexyl]prop-1-en-2-yl]-23 ,25-dimethoxy-13,19,21,27-tetramethyl-17-prop-2-enyl-11,28-dioxa-4-azatricyclo [22.3.1.0^4.8]octacos-18-ene-2,3,10,16-tetrone], in data set [1], the solubility in water entry was “practically insoluble in water”. Moreover, in data set [2] (Prograf label), the absorption was less than 25%. The “variability of absorption (%CV range)” value in data set [2] (depending on the study) was 28-58%. Moreover, in data set [3] (inhalation 1 mg BID repeat dose, healthy volunteers, preliminary), the “tacrolimus plasma exposure, actual arithmetic mean” value was 45 ng/mL. Further, the “actual trough values at 12 hours post dose compared with simulated exposure” value in data set [3] (inhalation 1 mg BID, Day 1 and Day 7) is recorded as “closer to the upper 90% confidence interval for simulated exposure”. In addition, in data set [3] (setting [4]), the “Cmin (trough) concentrations at 12 h compared with oral PK model” value is on record as “slightly higher than predicted” and the “observed Cmax compared with oral PK model” value is listed as “lower than predicted”.

The values above are taken from patent US20220362222A1, “ONCE DAILY FORMULATIONS OF TACROLIMUS” (TFF Pharmaceuticals, Inc., priority 2021, published 2022).
